{"source": "paper PMC8715118", "about": "“Assessing potentiation of the (α4)3(β2)2 nicotinic acetylcholine receptor by the allosteric agonist CMPI” (The Journal of Biological Chemistry, 2021)", "key": {"(α4)3(β2)2 nAChR [1]": {"molecular_target": "T1, (α4)3(β2)2 nAChR (Homo sapiens, UniProt P17787+P43681)", "T1 construct": "expressed in transfected cells; host or cells: Xenopus laevis oocytes injected with cRNA, 8:1 α4:β2", "T1 sequence (P43681 27-627)": "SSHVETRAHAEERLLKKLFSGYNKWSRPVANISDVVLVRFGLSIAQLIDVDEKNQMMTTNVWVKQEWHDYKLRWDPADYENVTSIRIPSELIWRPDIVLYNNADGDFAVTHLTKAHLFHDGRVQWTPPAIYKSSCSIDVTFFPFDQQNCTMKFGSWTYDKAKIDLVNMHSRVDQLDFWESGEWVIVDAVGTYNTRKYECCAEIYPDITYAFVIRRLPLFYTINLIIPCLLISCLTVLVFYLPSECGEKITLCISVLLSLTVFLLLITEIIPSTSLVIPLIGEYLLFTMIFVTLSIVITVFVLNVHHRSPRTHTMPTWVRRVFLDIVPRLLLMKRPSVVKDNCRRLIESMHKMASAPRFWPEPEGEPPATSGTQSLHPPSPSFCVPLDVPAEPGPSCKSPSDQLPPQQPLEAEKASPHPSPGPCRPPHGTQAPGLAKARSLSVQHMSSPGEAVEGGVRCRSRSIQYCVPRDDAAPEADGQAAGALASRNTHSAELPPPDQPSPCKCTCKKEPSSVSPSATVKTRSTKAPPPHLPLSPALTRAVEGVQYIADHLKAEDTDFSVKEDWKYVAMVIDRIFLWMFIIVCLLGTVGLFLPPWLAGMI", "T1 sequence (P17787 26-502)": "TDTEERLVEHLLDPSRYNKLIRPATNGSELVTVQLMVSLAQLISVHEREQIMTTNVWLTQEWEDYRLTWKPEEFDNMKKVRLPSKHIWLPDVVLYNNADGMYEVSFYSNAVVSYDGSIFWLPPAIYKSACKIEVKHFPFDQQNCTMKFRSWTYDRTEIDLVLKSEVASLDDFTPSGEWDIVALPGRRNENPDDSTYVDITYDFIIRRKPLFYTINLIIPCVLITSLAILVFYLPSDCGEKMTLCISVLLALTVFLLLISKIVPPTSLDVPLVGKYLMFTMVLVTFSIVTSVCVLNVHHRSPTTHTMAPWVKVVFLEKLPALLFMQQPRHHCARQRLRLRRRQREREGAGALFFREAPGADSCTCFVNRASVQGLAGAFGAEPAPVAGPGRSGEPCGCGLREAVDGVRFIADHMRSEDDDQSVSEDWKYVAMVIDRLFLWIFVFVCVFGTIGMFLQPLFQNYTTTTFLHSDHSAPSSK", "assay": "Two-electrode voltage-clamp whole-cell currents, Xenopus oocytes expressing WT (α4)3(β2)2 nAChR", "assay_type": "cell-based", "settings": "for EC50: agonist alone, read-out: agonist EC50", "procedure": "(§1) Oocytes-positive female Xenopus laevis were purchased from NASCO, and all procedures were performed according to an animal use protocol approved by the Institutional Animals Care and Use Committee of The University of Texas Health Science Center at Tyler. Ovarian lobules were surgically harvested, treated with collagenase type 2, and Stage V and VI oocytes were visually selected and maintained at 18 °C in modified ND96-gentamicin buffer (96 mM NaCl, 2 mM KCl, 1.8 mM CaCl2, 1 mM MgCl2, 5 mM Hepes, and 50 μg/ml gentamicin, pH 7.6).\n(§2) pSP64 Poly(A) plasmids with cDNA encoding for human α4 or β2 nAChR subunit were used to prepare cRNA transcripts suitable for oocyte expression. The plasmids were linearized with AseI (hα4) and PvuII (hβ2), then cRNA transcripts were prepared in vitro using mMESSAGE mMACHINE high yield-capped RNA transcription kits (Ambion, Thermo Fisher Scientific), purified on NucAway Spin column (Invitrogen, Thermo Fisher Scientific), and stored at −80 °C until used. Point mutations within the plasmid encoding the α4 nAChR subunit were introduced using QuikChange II Site-Directed Mutagenesis Kit (Agilent Technologies), as described previously ([28]). To generate amino acid substitutions (K64T, E66I, H116V, H116L, and H116A), two custom-designed complementary oligos containing the desired mutation were used (Integrated DNA Technologies). The forward primers were as the following with the codon for mutated amino acids are underlined and nucleotide(s) changes are bolded and italicized:\n(§3) The oocytes were injected with 10 to 50 ng of a cRNA mix containing α4 (WT or mutant) and β2 RNAs at ratios of 8:1(α4:β) or 1:8 (α4:β2) to bias expression toward (α4)3(β2)2 or (α4)2(β2)3 nAChRs, respectively. The injection of oocytes with RNAs mixture containing four folds or higher α4 RNA than β2 RNA have been established to express receptor population that is made up of three α4 and two β2 subunits ([9], [12], [28], [43], [44], [45]).\n(§4) 24 to 72 h after cRNA injection, Xenopus oocytes were placed in a custom-made recording chamber that is connected to an eight-channel automated perfusion system (Warner Instruments) and perfused with recording buffer (100 mM NaCl, 2 mM KCl, 1 mM CaCl2, 0.8 mM MgCl2, 1 mM EGTA, and 10 mM Hepes, pH 7.5). Unless otherwise specified in figure legends, each recording run included several drug applications (10 s of an agonist with or without CMPI or NS9283) separated by 3 to 4 min buffer wash intervals. Between recording runs, the oocytes were washed with recording buffer for at last 5 min. The oocytes were voltage-clamped at −50 mV using Oocyte Clamp OC-725B (Warner Instruments). The currents were digitized using Digidata 1550A (Axon Instruments, Molecular Devices), and the peak currents were quantified using pCLAMP 10 (Axon Instruments), then normalized and analyzed using Excel 2010 (Microsoft) and SigmaPlot 11.0 (Systat Software). For NS9283 and CMPI potentiation of agonist-induced responses, the peak currents were normalized to current elicited by agonist alone applied within the same recording run. For the effect of coapplication of 1 μM NS9283 or CMPI on agonist concentration-response curve, the peak currents were normalized to current elicited by saturating concentration of agonist applied within the same recording run. […] I0 = 100 for NS9283 and CMPI potentiation of agonist-induced responses and I0 = 0 for agonist concentration-response experiments. The best-fit values for Imax and EC50 ± SD are presented."}, "nAChR": {"test_system": "nAChR", "design": "method as in PMID 1378342", "settings": "nonselective, allosteric antagonist; cited from earlier work"}, "(α4)3(β2)2 nAChR [2]": {"molecular_target": "T1, (α4)3(β2)2 nAChR", "assay": "Mechanistic (Monod-Wyman-Changeux two-state model) analysis of current responses, WT (α4)3(β2)2 nAChR", "assay_type": "cell-based", "settings": "for Kd / c, ratio of equilibrium dissociation constants active/resting receptor: WT; for peak PA: calculated with Equation 2", "description": "To gain mechanistic insight into receptor activation in the presence of CMPI, we analyzed the currents in the framework of a cyclic two-state (resting and active) allosteric activation model ([31], [32], [33]). In this model, channel opening is mediated by stabilization of the active state by an agonist that, by definition, has higher affinity to the active than resting state.\nWe commenced by converting the raw amplitudes of current responses to units of probability of being in the active state (PA units).\n(§5) Further analysis of electrophysiological data was conducted in the framework of the two-state concerted transition model, adapted from the MWC cyclic model originally used to describe enzyme function ([31], [32], [33]). The raw peak amplitudes of current responses were converted to units of probability of being in the active state (PA).\n(§6) The numbers of α4:β2 and α4:α4 binding sites (Nα4:β2 and Nα4:α4) were constrained to 2 and 1, respectively.\n(§7) The concentration-response curve for TC-2559 was fitted to the following equation:(3) PA=1/1+L[1+[TC-2559]/KR,TC-2559,α4:β2/1+[TC-2559]/(KR,TC-2559,α4:β2cTC-2559,α4:β2)]^Nα4:β2\n(§8) The concentration-response data were analyzed using Equation 3, with the value of L modified to reflect receptor activation by TC-2559, and the affinity and efficacy terms in the equation reflecting the values for CMPI. The number of binding sites for CMPI in Equation 3 was constrained to 1.\n(§9) Curve fitting was done using Origin 2020 (OriginLab Corp). The results are reported as best-fit parameter ±SD of the fit. All data are included in the analysis."}, "(α4)2(β2)3 nAChR": {"molecular_target": "T2, (α4)2(β2)3 nAChR (Homo sapiens, UniProt P17787+P43681)", "T2 construct": "expressed in transfected cells; host or cells: Xenopus laevis oocytes injected with cRNA, 1:8 α4:β2", "T2 sequence (P43681 27-627)": "as the sequence (P43681 27-627) above", "T2 sequence (P17787 26-502)": "as the sequence (P17787 26-502) above", "assay": "Two-electrode voltage-clamp whole-cell currents, Xenopus oocytes expressing (α4)2(β2)3 nAChR", "assay_type": "cell-based", "procedure": "as §1\npSP64 Poly(A) plasmids with cDNA encoding for human α4 or β2 nAChR subunit were used to prepare cRNA transcripts suitable for oocyte expression. The plasmids were linearized with AseI (hα4) and PvuII (hβ2), then cRNA transcripts were prepared in vitro using mMESSAGE mMACHINE high yield-capped RNA transcription kits (Ambion, Thermo Fisher Scientific), purified on NucAway Spin column (Invitrogen, Thermo Fisher Scientific), and stored at −80 °C until used. […]\nTwo-electrode voltage-clamp recordings of ACh- or TC-2559 induced responses of Xenopus oocytes were performed, as described in ([28]). […] The currents were digitized using Digidata 1550A (Axon Instruments, Molecular Devices), and the peak currents were quantified using pCLAMP 10 (Axon Instruments), then normalized and analyzed using Excel 2010 (Microsoft) and SigmaPlot 11.0 (Systat Software). […]"}, "(α4H116A)3(β2)2 nAChR [3]": {"molecular_target": "T3, (α4H116A)3(β2)2 nAChR (Homo sapiens, UniProt P17787+P43681, H142A)", "T3 construct": "expressed in transfected cells; host or cells: Xenopus laevis oocytes injected with cRNA, 8:1 α4:β2", "T3 sequence (P43681 27-627 H142A)": "as the sequence (P43681 27-627) above, with H116A counted along it", "T3 sequence (P17787 26-502)": "as the sequence (P17787 26-502) above", "assay": "Mechanistic (Monod-Wyman-Changeux two-state model) analysis of current responses, (α4H116A)3(β2)2 nAChR", "assay_type": "cell-based", "settings": "α4H116A mutant; for Kd: read-out: KR, equilibrium dissociation constant in the resting receptor", "procedure": "as §5, §6, §7, §8, §9"}, "(α4H116A)3(β2)2 nAChR [4]": {"molecular_target": "T3, (α4H116A)3(β2)2 nAChR", "assay": "Two-electrode voltage-clamp, oocytes expressing (α4H116A)3(β2)2 nAChR", "assay_type": "cell-based", "procedure": "as §1, §2, §3, §4"}}, "note": "Values joined by “and” are separate entries in the source; they are usually repeats but may differ in a detail not shown here. Equal entries are not always repeated. Where two headings read alike, the source gives them in different places."}
{"smiles": "CNC1(C)C2CCC(C2)C1(C)C", "note": "(stereo not shown) [mecamylamine]", "values": [{"measurement": "outward current, mean amplitude, % of the absolute response to 1 mM ACh", "setting": "(α4)3(β2)2 nAChR [1]; 100 μM mecamylamine, holding current", "result": "2.1 ± 0.5", "unit": "%"}, {"measurement": "IC50s", "setting": "nAChR", "result": "submicromolar range"}]}
{"smiles": "O=c1cccc2n1C[C@@H]1CNC[C@H]2C1", "note": "[cytisine]", "values": [{"measurement": "current response produced by a saturating concentration (100 μM), % of current elicited by 1 mM ACh", "setting": "(α4)3(β2)2 nAChR [1]; 100 μM agonist", "result": "10 ± 1", "unit": "%"}, {"measurement": "I100 μM cytisine + 1 μM CMPI", "setting": "(α4)3(β2)2 nAChR [1]; % of 100 μM cytisine alone", "result": "91 ± 5", "unit": "%"}, {"measurement": "I100 μM cytisine + 1 μM NS9283", "setting": "(α4)3(β2)2 nAChR [1]; % of 100 μM cytisine alone, data not shown", "result": "113 ± 9", "unit": "%"}, {"measurement": "EC50", "setting": "(α4)3(β2)2 nAChR [1]", "result": "11000 ± 6000", "unit": "nM"}, {"measurement": "current response at subsaturating concentration, % of the current response to 1 mM ACh", "setting": "(α4)3(β2)2 nAChR [1]; subsaturating (1 μM) agonist", "result": "2.3 ± 0.4", "unit": "%"}, {"measurement": "Kd", "setting": "(α4)3(β2)2 nAChR [2]; KR, equilibrium dissociation constant in the resting receptor, α4:α4 site", "result": "8300 ± 500", "unit": "nM"}, {"measurement": "Kd", "setting": "(α4)3(β2)2 nAChR [2]; read-out: KR, equilibrium dissociation constant in the resting receptor, α4:β2 site", "result": "630 ± 1240", "unit": "nM"}, {"measurement": "c, ratio of equilibrium dissociation constants active/resting receptor", "setting": "(α4)3(β2)2 nAChR [2]; α4:α4 site", "result": "0.155 ± 0.104"}, {"measurement": "c, ratio of equilibrium dissociation constants active/resting receptor", "setting": "(α4)3(β2)2 nAChR [2]; α4:β2 site", "result": "0.875 ± 0.029"}]}
{"smiles": "CC(=O)OCC[N+](C)(C)C", "note": "[ACh, Acetylcholine chloride]", "values": [{"measurement": "PA,1 mM ACh (peak probability of being in the active state)", "setting": "(α4)3(β2)2 nAChR [2]; 1 mM ACh, normalized to 1 mM ACh + 3 μM dFBr", "result": "0.36 ± 0.05 and 0.36"}, {"measurement": "free energy change toward stabilization of the active state (ΔGgating)", "setting": "(α4)3(β2)2 nAChR [2]; binding to the single α4:α4 site", "result": -1.27, "unit": "kcal/mol"}, {"measurement": "free energy change toward stabilization of the active state (ΔGgating,total)", "setting": "(α4)3(β2)2 nAChR [2]; binding to the two α4:β2 sites", "result": -1.69, "unit": "kcal/mol"}, {"measurement": "peak PA", "setting": "(α4)3(β2)2 nAChR [2]; occupation of the two α4:β2 sites and the single α4:α4 site with ACh", "result": 0.36}, {"measurement": "peak PA", "setting": "(α4)3(β2)2 nAChR [2]; occupation of the two α4:β2 sites with ACh", "result": 0.072}, {"measurement": "ΔGgating per site", "setting": "(α4)3(β2)2 nAChR [2]; per α4:β2 site", "result": -0.84, "unit": "kcal/mol"}]}
{"smiles": "CCOc1cncc(/C=C/CCNC)c1", "note": "[TC-2559]", "values": [{"measurement": "I30 μM TC-2559, % of current induced by 1 mM ACh", "setting": "(α4)2(β2)3 nAChR; 30 μM TC-2559", "result": "152 ± 21", "unit": "%"}, {"measurement": "EC50", "setting": "(α4)2(β2)3 nAChR; agonist alone", "result": "540 ± 20", "unit": "nM"}, {"measurement": "c, ratio of equilibrium dissociation constants active/resting receptor", "setting": "(α4H116A)3(β2)2 nAChR [3]; α4:α4 site", "result": "0.046 ± 0.003"}, {"measurement": "Kd", "setting": "(α4H116A)3(β2)2 nAChR [3]; α4:α4 site", "result": "70000 ± 3000", "unit": "nM"}, {"measurement": "c, ratio of equilibrium dissociation constants active/resting receptor", "setting": "(α4H116A)3(β2)2 nAChR [3]; α4:β2 site", "result": "0.337 ± 0.013"}, {"measurement": "Kd", "setting": "(α4H116A)3(β2)2 nAChR [3]; α4:β2 site", "result": "210 ± 50", "unit": "nM"}, {"measurement": "I30 μM TC-2559, % of current induced by 1 mM ACh", "setting": "(α4)3(β2)2 nAChR [1]; 30 μM TC-2559", "result": "11 ± 2", "unit": "%"}, {"measurement": "Emax, % of current induced by 1 mM ACh", "setting": "(α4)3(β2)2 nAChR [1]; WT", "result": "~10", "unit": "%"}, {"measurement": "EC50", "setting": "(α4)3(β2)2 nAChR [1]", "result": "340 ± 40", "unit": "nM"}, {"measurement": "Emax, % of current induced by 1 mM ACh", "setting": "(α4H116A)3(β2)2 nAChR [4]", "result": "182 ± 5", "unit": "%"}, {"measurement": "Emax", "setting": "(α4H116A)3(β2)2 nAChR [4]; absence of CMPI, normalized to 100 μM TC-2559", "result": "115 ± 14", "unit": "%"}, {"measurement": "EC50", "setting": "(α4H116A)3(β2)2 nAChR [4]; absence of CMPI, read-out: EC50 of TC-2559", "result": "22000 ± 7000", "unit": "nM"}, {"measurement": "c, ratio of equilibrium dissociation constants active/resting receptor", "setting": "(α4)3(β2)2 nAChR [2]; α4:β2 site", "result": "0.371 ± 0.006"}, {"measurement": "Kd", "setting": "(α4)3(β2)2 nAChR [2]; α4:β2 site, read-out: KR, equilibrium dissociation constant in the resting receptor", "result": "330 ± 50", "unit": "nM"}]}
